According to publication PMC8955485, “Journey on VX-809-Based Hybrid Derivatives towards Drug-like F508del-CFTR Correctors: From Molecular Modeling to Chemical Synthesis and Biological Assays” (Pharmaceuticals, 2022):
Values joined by “and” are separate entries in the source; they are usually repeats but may differ in a detail not shown here. Equal values may be shown once. Read-outs that look alike come from different tables or passages of the source.

How the values were obtained:
[1] = target: T1, F508del-CFTR (Homo sapiens, UniProt P13569, DEL508-508); set-up: expressed in transfected cells; conditions: first series of hybrids, cited from earlier work; for pEC50: from EC50 of ref 27
T1 sequence (P13569 with tags, fused parts or gaps DEL508-508): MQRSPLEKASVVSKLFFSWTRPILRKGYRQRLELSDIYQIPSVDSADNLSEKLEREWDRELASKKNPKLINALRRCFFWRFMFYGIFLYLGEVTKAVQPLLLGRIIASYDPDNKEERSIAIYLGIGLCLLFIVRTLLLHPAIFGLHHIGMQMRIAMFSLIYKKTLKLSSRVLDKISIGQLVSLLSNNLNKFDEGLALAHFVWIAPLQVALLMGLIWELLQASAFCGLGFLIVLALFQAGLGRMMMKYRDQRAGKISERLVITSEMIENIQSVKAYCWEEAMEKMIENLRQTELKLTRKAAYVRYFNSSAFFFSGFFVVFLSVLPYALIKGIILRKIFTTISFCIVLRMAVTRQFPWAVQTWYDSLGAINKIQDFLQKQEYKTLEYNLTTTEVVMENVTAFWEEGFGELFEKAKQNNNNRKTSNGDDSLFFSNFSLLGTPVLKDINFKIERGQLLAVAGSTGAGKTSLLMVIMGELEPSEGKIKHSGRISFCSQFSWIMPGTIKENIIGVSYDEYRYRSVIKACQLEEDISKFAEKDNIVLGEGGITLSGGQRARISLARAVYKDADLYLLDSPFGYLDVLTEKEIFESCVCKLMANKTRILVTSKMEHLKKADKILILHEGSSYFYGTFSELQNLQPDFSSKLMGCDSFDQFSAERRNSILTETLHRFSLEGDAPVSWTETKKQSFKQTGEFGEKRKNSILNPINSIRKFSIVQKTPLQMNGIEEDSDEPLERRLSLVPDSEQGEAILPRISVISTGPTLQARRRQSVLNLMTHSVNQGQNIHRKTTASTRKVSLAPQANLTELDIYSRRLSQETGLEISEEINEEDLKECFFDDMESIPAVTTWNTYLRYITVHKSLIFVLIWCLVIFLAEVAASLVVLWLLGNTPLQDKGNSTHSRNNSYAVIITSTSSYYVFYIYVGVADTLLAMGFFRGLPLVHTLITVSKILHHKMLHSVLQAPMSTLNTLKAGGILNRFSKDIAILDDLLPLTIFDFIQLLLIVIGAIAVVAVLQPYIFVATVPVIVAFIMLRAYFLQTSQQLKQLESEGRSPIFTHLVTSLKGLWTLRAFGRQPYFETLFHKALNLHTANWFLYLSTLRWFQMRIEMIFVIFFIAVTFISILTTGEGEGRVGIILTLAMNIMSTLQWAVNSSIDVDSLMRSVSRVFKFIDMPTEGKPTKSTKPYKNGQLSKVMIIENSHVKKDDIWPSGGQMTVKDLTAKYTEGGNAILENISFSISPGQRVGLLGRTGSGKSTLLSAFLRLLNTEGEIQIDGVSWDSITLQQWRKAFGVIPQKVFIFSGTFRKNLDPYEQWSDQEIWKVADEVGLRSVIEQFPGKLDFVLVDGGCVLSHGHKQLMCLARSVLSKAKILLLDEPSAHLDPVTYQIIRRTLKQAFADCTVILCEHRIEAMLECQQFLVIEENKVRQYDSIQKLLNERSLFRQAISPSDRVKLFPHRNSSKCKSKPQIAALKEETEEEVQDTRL

[2] = target: T1, F508del-CFTR; assay: HS-YFP functional assay for F508del-CFTR correctors in CFBE41o- cells; type: cell-based; set-up: expressed in transfected cells; conditions: CFBE41o- cells stably expressing F508del-CFTR and HS-YFP; 24 h incubation; stimulation with forskolin 20 µM plus VX-770 1 µM
Experimental: The ability of these compounds to correct the basic defects related to F508del mutant was evaluated on immortalized CFBE41o-bronchial epithelial cells stably expressing F508del-CFTR and the halide sensitive yellow fluorescent protein (HS-YFP).
The measurements of the rate of HS-YFP quenching caused by iodide influx allowed us to determine the activity of F508del-CFTR, after incubation with the compounds, as cited. Activity was then compared to that of cells treated with the corrector VX-809 (1 µM) or with vehicle alone (DMSO).
Within the novel third series of hybrids herein proposed, based on their potency and efficacy in terms of CFTR rescue, we selected six compounds and determined the dose–response relationships (Figure 6). To this aim, F508del-CFTR expressing CFBE41o-cells were treated for 24 h with our hybrids 9b, 9f, 9g, 9h, 9j, and 9y and then mutant CFTR activity was measured by using the YFP functional assay (see Materials and Methods section for details).
Immortalized bronchial epithelial CFBE41o-cells with stable co-expression of the halide-sensitive yellow fluorescent protein (HS-YFP) and of F508del-CFTR were cultured using MEM medium supplemented with 10% fetal calf serum, 100 U/mL penicillin, 2 mM L-glutamine, and […] streptomycin.
CFBE41o-cells co-expressing mutants CFTR and HS-YFP were plated (50,000 cells/well) on clear-bottom 96-well black microplates (Corning Life Sciences, Acton, MA) and grown at 37 °C in 5% CO2 for 24 h. For the corrector assay, CFBE41o-cells were treated for further 24 h with compounds as indicated. The following day, prior to the assay, the culture medium was removed and cells were stimulated for 30 min at 37 °C with 60 µL PBS (containing 137 mM NaCl, 2.7 mM KCl, 8.1 mM Na2HPO4, 1.5 mM KH2PO4, 1mM CaCl2, and 0.5 mM MgCl2) plus forskolin (20 µM) and VX-770 (1 µM).
Microplates containing CFBE41o-cells were then transferred to a plate reader (FluoStar Galaxy; BMG Labtech, Offenburg, Germany) equipped with excitation (HQ500/20X: 500 ± 10 nm) and emission (HQ535/30M: 535 ± 15 nm) filters for YFP (Chroma Technology, Brattleboro, VT, USA). During the assay fluorescence was measured continuously for 14 s with 2 s before and 12 s after injection of an iodide containing solution (165 µL of a modified PBS containing I^- instead of Cl^-; final I^- concentration in the well: 100 mM).
Fluorescence data were normalized for the initial value and fluorescence quenching rate following I^- influx, were determined by fitting the final 10 s of data for each well with an exponential function to extrapolate initial slope (dF/dt).
To evaluate the dose–response relationships, activity slopes obtained for each compound at the different concentrations were fitted with the Hill equation using the Igor software (WaveMetrics) to extrapolate EC50, maximal effect, and Hill coefficient.

Compound: O=C(c1ccccc1)c1sc(NC(=O)C2(c3ccc4c(c3)OCO4)CC2)nc1-c1ccccc1 [Compound 2a]
- EC50 [1]: 87 nM
- pEC50 [1]: 7.06 M

Compound: CCOC(=O)c1sc(NC(=O)C2(c3ccc4c(c3)OCO4)CC2)nc1-c1ccc(Br)cc1 [Compound 2b]
- EC50 [1]: 300 nM
- pEC50 [1]: 6.52 M

Compound: CCOC(=O)c1sc(NC(=O)C2(c3ccc4c(c3)OCO4)CC2)nc1-c1cccc(Cl)c1 [Compound 2c]
- EC50 [1]: 550 nM
- pEC50 [1]: 6.26 M

Compound: CCOC(=O)c1sc(NC(=O)C2(c3ccc4c(c3)OCO4)CC2)nc1-c1ccc(Cl)cc1 [Compound 2d]
- EC50 [1]: 900 nM
- pEC50 [1]: 6.05 M

Compound: Cc1sc(NC(=O)C2(c3ccc4c(c3)OCO4)CC2)nc1-c1ccc(Cl)cc1 [Compound 3a]
- EC50 [1]: 2900 nM
- pEC50 [1]: 5.54 M

Compound: Cc1sc(NC(=O)C2(c3ccc4c(c3)OCO4)CC2)nc1-c1ccc(Br)cc1 [Compound 3b]
- EC50 [1]: 1900 nM
- pEC50 [1]: 5.72 M

Compound: Cc1sc(NC(=O)C2(c3ccc4c(c3)OCO4)CC2)nc1-c1cccc(Cl)c1 [Compound 3c]
- EC50 [1]: 2300 nM
- pEC50 [1]: 5.64 M

Compound: Cc1sc(NC(=O)C2(c3ccc4c(c3)OCO4)CC2)nc1-c1ccccc1 [Compound 3d]
- EC50 [1]: 1600 nM
- pEC50 [1]: 5.80 M

Compound: Cc1sc(NC(=O)C2(c3ccc4c(c3)OCO4)CC2)nc1-c1ccc(F)cc1 [Compound 3e]
- EC50 [1]: 900 nM
- pEC50 [1]: 6.05 M

Compound: O=C(Nc1nc(-c2ccc(Cl)cc2)cs1)C1(c2ccc3c(c2)OCO3)CC1 [Compound 4a]
- EC50 [1]: 2900 nM
- pEC50 [1]: 5.54 M

Compound: O=C(Nc1nc(-c2ccc(Br)cc2)cs1)C1(c2ccc3c(c2)OCO3)CC1 [Compound 4b]
- EC50 [1]: 4900 nM
- pEC50 [1]: 5.31 M

Compound: O=C(Nc1nc(-c2cccc(Cl)c2)cs1)C1(c2ccc3c(c2)OCO3)CC1 [Compound 4c]
- EC50 [1]: 8200 nM
- pEC50 [1]: 5.09 M

Compound: O=C(Nc1nc(-c2ccc(I)cc2)cs1)C1(c2ccc3c(c2)OCO3)CC1 [Compound 4d]
- EC50 [1]: 1200 nM
- pEC50 [1]: 5.92 M

Compound: O=C(Nc1nc(-c2cccc(F)c2)cs1)C1(c2ccc3c(c2)OCO3)CC1 [Compound 4e]
- EC50 [1]: 2100 nM
- pEC50 [1]: 5.68 M

Compound: O=C(Nc1nc(-c2ccc(O)cc2)cs1)C1(c2ccc3c(c2)OCO3)CC1 [Compound 5a]
- EC50 [1]: 1800 nM
- pEC50 [1]: 5.74 M

Compound: O=C(Nc1nc(-c2cccc(O)c2)cs1)C1(c2ccc3c(c2)OCO3)CC1 [Compound 5b]
- EC50 [1]: 2300 nM
- pEC50 [1]: 5.64 M

Compound: Cc1sc(NC(=O)C2(c3ccc4c(c3)OCO4)CC2)nc1-c1cccc(O)c1 [Compound 5c]
- EC50 [1]: 1200 nM
- pEC50 [1]: 5.92 M

Compound: Cc1sc(NC(=O)C2(c3ccc4c(c3)OCO4)CC2)nc1-c1ccc(O)cc1 [Compound 5d]
- EC50 [1]: 3900 nM
- pEC50 [1]: 5.41 M

Compound: O=C(O)c1ccc(-c2csc(NC(=O)C3(c4ccc5c(c4)OCO5)CC3)n2)cc1 [Compound 5e]
- EC50 [1]: > 5000 nM and 5000 nM
- pEC50 [1]: 5.30 M

Compound: Cc1sc(NC(=O)C2(c3ccc4c(c3)OCO4)CC2)nc1-c1ccc(C(=O)O)cc1 [Compound 5f]
- EC50 [1]: 2900 nM
- pEC50 [1]: 5.54 M

Compound: CC(=O)Nc1ccc(-c2csc(NC(=O)C3(c4ccc5c(c4)OCO5)CC3)n2)cc1 [Compound 5g]
- EC50 [1]: > 5000 nM and 5000 nM
- pEC50 [1]: 5.30 M

Compound: Cc1sc(NC(=O)C2(c3ccc4c(c3)OC(F)(F)O4)CC2)nc1-c1ccc(Br)cc1 [Compound 6a]
- EC50 [1]: 3800 nM
- pEC50 [1]: 5.42 M

Compound: Cc1sc(NC(=O)C2(c3ccc4c(c3)OC(F)(F)O4)CC2)nc1-c1cccc(Cl)c1 [Compound 6b]
- EC50 [1]: 5400 nM
- pEC50 [1]: 5.27 M

Compound: O=C(Nc1nc(-c2cccc(O)c2)cs1)C1(c2ccc3c(c2)OC(F)(F)O3)CC1 [Compound 6c]
- EC50 [1]: 1300 nM
- pEC50 [1]: 5.89 M

Compound: O=C(Nc1nc(-c2ccc(O)cc2)cs1)C1(c2ccc3c(c2)OC(F)(F)O3)CC1 [Compound 6d]
- EC50 [1]: 1700 nM
- pEC50 [1]: 5.77 M

Compound: COc1ccc(-c2nc(NC(=O)C3(c4ccc5c(c4)OCO5)CC3)sc2C(=O)c2ccccc2)cc1 [Compound 9a, 1-(benzo[d][1, 3]dioxol-5-yl)-N-(5-benzoyl-4-(4-methoxyphenyl)thiazol-2-yl)cyclopropane-1-carboxamide]
- EC50 [2]: 350 nM

Compound: COc1ccc(-c2nc(NC(=O)C3(c4ccc5c(c4)OCO5)CC3)sc2C(=O)c2ccc(OC(F)(F)F)cc2)cc1 [Compound 9c]
- EC50 [2]: 140 nM

Compound: COc1ccc(-c2nc(NC(=O)C3(c4ccc5c(c4)OCO5)CC3)sc2C(=O)c2ccc(SC)cc2)cc1 [Compound 9d]
- EC50 [2]: 100 nM

Compound: CCOC(=O)c1ccc(C(=O)c2sc(NC(=O)C3(c4ccc5c(c4)OCO5)CC3)nc2-c2ccc(OC)cc2)cc1 [Compound 9e]
- EC50 [2]: 560 nM

Compound: COc1ccc(-c2nc(NC(=O)C3(c4ccc5c(c4)OCO5)CC3)sc2C(=O)c2ccc(-c3ccccc3)cc2)cc1 [Compound 9f]
- EC50 [2]: 140 nM

Compound: COc1ccc(-c2nc(NC(=O)C3(c4ccc5c(c4)OCO5)CC3)sc2C(=O)c2cccc(OC)c2)cc1 [Compound 9h]
- EC50 [2]: 120 nM

Compound: COc1ccc(C(=O)c2sc(NC(=O)C3(c4ccc5c(c4)OCO5)CC3)nc2-c2cccc(OC)c2)cc1 [Compound 9i, 1-(benzo[d][1,3]dioxol-5-yl)-N-(5-(4-methoxybenzoyl)-4-(3-methoxyphenyl)thiazol-2-yl)cyclopropane-1-carboxamide]
- EC50 [2]: 190 nM

Compound: COc1cccc(-c2nc(NC(=O)C3(c4ccc5c(c4)OCO5)CC3)sc2C(=O)c2ccc(SC)cc2)c1 [Compound 9k]
- EC50 [2]: 360 nM

Compound: CCOC(=O)c1ccc(C(=O)c2sc(NC(=O)C3(c4ccc5c(c4)OCO5)CC3)nc2-c2cccc(OC)c2)cc1 [Compound 9l]
- EC50 [2]: 490 nM

Compound: COc1cccc(-c2nc(NC(=O)C3(c4ccc5c(c4)OCO5)CC3)sc2C(=O)c2ccc(-c3ccccc3)cc2)c1 [Compound 9m]
- EC50 [2]: 740 nM

Compound: COc1cccc(-c2nc(NC(=O)C3(c4ccc5c(c4)OCO5)CC3)sc2C(=O)c2ccc(N3CCCC3)cc2)c1 [Compound 9n]
- EC50 [2]: 600 nM

Compound: COc1cccc(C(=O)c2sc(NC(=O)C3(c4ccc5c(c4)OCO5)CC3)nc2-c2cccc(OC)c2)c1 [Compound 9o]
- EC50 [2]: 210 nM

Compound: COc1ccc(C(=O)c2sc(NC(=O)C3(c4ccc5c(c4)OCO5)CC3)nc2-c2ccccc2OC)cc1 [Compound 9p, 1-(benzo[d][1,3]dioxol-5-yl)-N-(5-(4-methoxybenzoyl)-4-(2-methoxyphenyl)thiazol-2-yl)cyclopropanecarboxamide]
- EC50 [2]: 220 nM

Compound: COc1ccccc1-c1nc(NC(=O)C2(c3ccc4c(c3)OCO4)CC2)sc1C(=O)c1ccc(OC(F)(F)F)cc1 [Compound 9q]
- EC50 [2]: 150 nM

Compound: COC(=O)c1ccc(-c2nc(NC(=O)C3(c4ccc5c(c4)OCO5)CC3)sc2C(=O)c2ccc(-c3ccccc3)cc2)cc1 [Compound 9r, Methyl 4-(5-([1,1′-biphenyl]-4-carbonyl)-2-(1-(benzo[d][1,3]dioxol-5-yl)cyclopropane-1-carboxamido)thiazol-4-yl)benzoate]
- EC50 [2]: 120 nM

Compound: CSc1ccc(-c2nc(NC(=O)C3(c4ccc5c(c4)OCO5)CC3)sc2C(=O)c2ccc(-c3ccccc3)cc2)cc1 [Compound 9s, N-(5-([1,1′-biphenyl]-4-carbonyl)-4-(4-(methylthio)phenyl)thiazol-2-yl)-1-(benzo[d][1,3]dioxol-5-yl)cyclopropane-1-carboxamide]
- EC50 [2]: 130 nM

Compound: O=C(c1ccc(-c2ccccc2)cc1)c1sc(NC(=O)C2(c3ccc4c(c3)OCO4)CC2)nc1-c1cccnc1 [Compound 9t, N-(5-([1,1′-biphenyl]-4-carbonyl)-4-(pyridin-3-yl)thiazol-2-yl)-1-(benzo[d][1,3]dioxol-5-yl)cyclopropane-1-carboxamide]
- EC50 [2]: 130 nM

Compound: O=C(c1ccc(-c2ccccc2)cc1)c1sc(NC(=O)C2(c3ccc4c(c3)OCO4)CC2)nc1-c1ccc(Cl)cc1 [Compound 9u, N-(5-([1,1′-biphenyl]-4-carbonyl)-4-(4-chlorophenyl)thiazol-2-yl)-1-(benzo[d][1,3]dioxol-5-yl)cyclopropane-1-carboxamide]
- EC50 [2]: 640 nM

Compound: COc1cccc(C(=O)c2sc(NC(=O)C3(c4ccc5c(c4)OCO5)CC3)nc2-c2ccc(SC)cc2)c1 [Compound 9v]
- EC50 [2]: 280 nM
